For series [1], the system named is macrophages in BCA atherosclerotic plaque. The series can be described thus: Example 3 second part: immunohistochemical detection of macrophages (Mac-3) in atherosclerotic plaque in BCA. It is filed as in vivo, mice. The conditions noted are these: high dose (10 mg/kg b.w./day). The procedure: For detection of macrophages in BCA, atherosclerotic plaque immunohistochemical staining was performed. After heat-induce epitope retrieval, with 10 mM sodium citrate buffer (pH 6), deparaffinised sections were blocked with 5% normal goat serum and 1% hydrogen peroxide. […] Next, sections were treated with biotinylated secondary antibody, followed by horseradish peroxidase-conjugated streptavidin. 3,3′-diaminobenzidine (DAB) as a chromogen was used for visualization of antibody-antigen interaction. Sections were counterstained with hematoxylin. Intensity of Mac-3 staining was estimated manually considering quantity and intensity of positive reactions. Final results are shown as a mean from two independent analysis.

The subject of series [2] is ApoE/LDLR−/− mice. The series can be described thus: Example 3 second part: MRI assessment of Ach-induced response in BCA and LCA, older mice. It is filed as in vivo. Particulars: eight weeks, 24-week-old mice. As for the experimental part:
Magnetic resonance imaging (MRI) experiments were performed using a 9.4T scanner (BioSpec 94/20 USR, Bruker, Germany) located in the Department of Magnetic Resonance Imaging, Institute of Nuclear Physics, Polish Academy of Sciences in Krakow. During the experiment, mice were anaesthetized using isoflurane (Aerrane, Baxter Sp. z o. o., Poland, 1.7 vol %) in an oxygen and air (1:2) mixture and imaged in the supine position. Activity of the heart, respiration, and body temperature (maintained at 37° C. using circulating warm water) were monitored using a Monitoring and Gating System (SA Inc., Stony Brook, N.Y., USA).
Endothelial function was assessed based on vascular responses to acetylcholine (Ach) administration in brachiocephalic artery (BCA), left common carotid artery (LCA) (FIGS. 6 A and B) and abdominal aorta (AA) (FIG. 6C) as well as to responses to increase in flow (flow-mediated dilatation, FMD) in femoral artery (FA) (FIG. 6D) as described in Bar A, Skorka T, Jasinski K, Sternak M, Bartel Z, Tyrankiewicz U, et al. Retrospectively-gated MRI for in vivo assessment of endothelium-dependent vasodilatation and endothelial permeability in murine models of endothelial dysfunction. NMR Biomed 2016; 29(8):1088.; Sternak M, Bar A, Adamski M G, Mohaissen T, Marczyk B, Kieronska A, et al. The Deletion of Endothelial Sodium Channel α (αENaC) Impairs Endothelium-Dependent Vasodilation and Endothelial Barrier Integrity in Endotoxemia in Vivo. […]
Vasomotor response was examined by comparing two time-resolved 3D images of the vessels prior to and 25 minutes after intraperitoneal Ach administration (Sigma-Aldrich, Poznan Poland: 50 μl, 16.6 mg/kg), as well as prior to and 5 minutes after vessel occlusion. […] End-diastolic volumes of vessels were analyzed using ImageJ software 1.46r (NIH Bethesda, Md., USA) and scripts written in Matlab (MathWorks, Natick, Mass., USA). […]

In series [3] the test system is ApoE/LDLR−/− mice. Nature of the series: Example 3 second part: histological assessment of area and composition of atherosclerotic plaque in BCA. It is filed as in vivo. Particulars: eight weeks. The text has this: For the determination of atherosclerotic plaque area and composition isolated brachiocephalic artery (BCA) was dissected, fixed in 4% buffered formalin, and embedded in paraffin. 5 μm-thick serial sections of BCA were collected from the proximal to distal part of the artery. Staining with Unna's orcein combined with Martius, Scarlet and Blue trichrome (OMSB) was applied on every tenth section (50 μm interval between each section) for quantitative analysis of atherosclerotic plaques. The areas of particular components of atherosclerotic plaque as well as artery lumen and wall were determined after Columbus-based software processing (FIG. 9) using specially-designed algorithm as described in Gajda M, Jasztal A, Banasik T, Jasek-Gajda E, Chlopicki S. Combined orcein and martius scarlet blue (OMSB) staining for qualitative and quantitative analyses of atherosclerotic plaques in brachiocephalic arteries in apoE/LDLR−/− mice. Histochem Cell Biol 2017. doi:10.1007/s00418-017-1538-8. The parameters analyzed include vessel wall area (VWA), internal vessel area (IVA=plaque area+lumen area), plaque area (expressed as percent of internal wall area: plaque/IWA), and lumen area (expressed as percent of internal wall area: lumen/IWA).

The conditions of series [4]: mouse, in vivo.
The test system of series [5] is kidney transplantation patients. The series can be described thus: Clinical study: pulse wave velocity measurement of arterial stiffness. It is filed as in vivo, human. The conditions noted are these: kidney transplant patients, 360 ug/day, 8 weeks. As for the experimental part:
Clinical Study to study the efficacy and safety of Vitamin K2 supplementation on arterial stiffness, the rigidity of arterial walls, in kidney transplantation patients.
A clinical study was carried out. Arterial wall property measurements were taken at t=0 and t=8 weeks and show a dramatic improvement in arterial wall flexibility. This is good support for concluding that the ingestion of vitamin K, even over this short period, is an effective way of improving endothelial function, reducing arterial stiffness and reducing calcification. […] It is surprising and unexpected because calcification is a slow progressive process and it was thought that reversing this process would also be slow and progressive.
Participants were enrolled in a clinical trial in which the effects of vitamin K2 were determined for patients who had recently undergone a kidney transplant. At the beginning of the study, patients were subjected to a non-invasive pulse wave velocity measurement to measure arterial stiffness/flexibility, as well as blood analysis. The study participants were then instructed to receive a specific daily dose of MenaQ7 vitamin K2 menaquinone-7 (360 ug/day) for a total of 8 weeks. At the end of 8 weeks, patients were again examined with a follow-up examination, a non-invasive pulse wave velocity measurement and blood analysis and drug treatment was discontinued.

Values joined by “and” are separate entries in the source; they are usually repeats but may differ in a detail not shown here. Equal entries are not always repeated.

In the case of `CC(C)=CCC/C(C)=C/CC/C(C)=C/CC/C(C)=C/CC/C(C)=C/CC/C(C)=C/CC/C(C)=C/CC1=C(C)C(=O)c2ccccc2C1=O` [MK-7, menaquinone-7], in series [1], the “intensity of MAC-3 staining” value is 139±29. Besides, in the series on ApoE/LDLR−/− mice [2] (high dose 10 mg/kg b.w/day), the “change in volume of BCA after Ach injection” value was found to be 3.12% and the “change in volume of LCA after Ach injection” value came out at 4.45%. In the series on ApoE/LDLR−/− mice [2] (low dose 0.03 mg/kg b.w/day, listed as vitamin K2, 0.03 mg/kg/day), the “change in volume of LCA after Ach injection” value is ~−3% and −3.92%. The “plaque and lumen area expressed as percent of IWA” value in the series on ApoE/LDLR−/− mice [3] (either low or high dose) is “did not change”. Also, in the series on ApoE/LDLR−/− mice [3] (low (0.03) or high (10 mg/kg b.w./day) dose), the “plaque size vs non-treated mice” value is listed as “not different”. For the same compound, in the series with ApoE/LDLR−/− mice [3] (low and high dose, 24-week-old mice), the “decrease in vessel wall area (VWA)” value was “about 5%”. Further, the “internal wall area (IWA)” value in the series on ApoE/LDLR−/− mice [3] (lower dose, not visible for entire vessel) is “decreased only in the middle part of the vessel”. The “vitamin K1 and K1 2,3-epoxide plasma concentration” value in series [4] is listed as “tent to decrease”. Moreover, in series [4] (5 mg/kg/day), the “concentration of MK4 2,3-epoxide in plasma” value is given as “maintained at similar level”, the “plasma concentration of K2 (MK-7)” value was “dose-dependent increase” and the “plasma concentration of MK-4” value is “dose-dependent increase”. Further, the “mean reduction in measured pulse-wave velocity” value in series [5] is reported as 30%.

(Values after patent US20200289434A1, “RAPIDLY IMPROVING ENDOTHELIAL FUNCTION, REDUCING ARTERIAL STIFFNESS AND REVERSING CALCIFICATION OF BLOOD VESSELS BY ADMINISTERING VITAMIN K” (KAYDENCE PHARMA AS, priority 2019, published 2020).)
